Assay results published in patent US20240327415A1, “Multicomponent Complexes, Including Salts, Crystalline Forms, and Hydrates and Solvates of ENT1 Inhibitors” (iTeos Belgium SA, priority 2023, published 2024).
Each block holds one molecule with its values, some of them ahead of it.

Key:
Assay type in all cases: physicochemical
[1] = salt screen, XRPD of damp, dried and 40° C./75% RH stored samples (Salt Preparation Methods 1 and 2); parameters: key to XRPD Analysis Damp/Dry: A = amorphous; Evap. = isolated via evaporation; conditions: for XRPD Analysis Damp/Dry: (evap.); for XRPD Analysis Damp / XRPD Analysis Dry: Ethyl acetate
Description: (§1) Salt Preparation Method 1: Approximately 25 mg of Compound 1 (free base) was weighed out into 1.5 mL screw-cap vials and a stirrer bar was added. For solid counterions, the appropriate amount of acid (1.0 or 2.0 equiv.) was weighed into separate 1.5 mL screw-cap vials. 100 μL of the appropriate solvent system was added to both the Compound 1 and the solid counterions. Stock solutions of liquid counterions were prepared, such that 100 μL contained 1.0 or 2.0 equiv. of acid. See counterion and solvent lists in Table 60 and Table 61 respectively.
(§2) The samples were stirred at 40° C. for 5-10 min and then the acid solutions were added to Compound 1, rinsing out the transfer vial with a further 50 μL of solvent. […] Experiments were temperature cycled between 40° C. and 5° C. (1 h hold; 0.1° C./min ramp/cool) for ca. 24-68 h. Anti-solvent addition (ASA) was carried out to slurries at 5° C. then experiments were heated to 30° C. over 1 h. ASA was carried out at 30° C. or 40° C. where clear solutions or gums were observed.
(§3) Temperature cycling was then continued for ca. 16-69 h, followed by further ASA and temperature cycling if required. Material was isolated at 5° C. and analyzed damp by XRPD. All isolated material was dried under vacuum at ca. 40° C. for ca. 17-91 h then re-analyzed by XRPD. The XRPD plate was stored at 40° C./75% RH for 24-48 h and then samples re-analyzed. Solutions were stored uncapped at ambient temperature to evaporate. Any residual solids were analyzed by XRPD.
(§4) Salt Preparation Method 2: The general procedure adopted in preparing the potential salts is outlined below. A known mass of Compound 1 (free base) and a known volume of the appropriate solvent system were added to 20 mL scintillation vials. The required mol. equiv. of the appropriate counterions were added to the vials as solutions or slurries in the corresponding solvent system.
(§5) The experiments were stirred at 40° C. for ca. 1 h, and then temperature cycled between 40° C. and 5° C. with 0.1° C./min ramp and 1 h hold between each step. Anti-solvent additions and subsequent slurrying at 5° C. were employed in order to facilitate crystallization. […] The damp and dried solids were subsampled and analyzed by XRPD. Where applicable, the dried solids were stored at 40° C./75% RH for 24-48 h in order to improve the crystallinity and/or facilitate solid form conversion to the desired form.

[2] = as above; parameters: key: A = amorphous; Evap. = isolated via evaporation
Description: as §1, §2, §3, §4, §5

[3] = Variable Humidity X-Ray Powder Diffraction (VH-XRPD); conditions: Form 3: after extended exposure
Description: (§6) In the examples below, VH-XRPD analysis was carried out on a Philips X'Pert Pro Multipurpose diffractometer equipped with a humidity chamber. The samples were scanned between 4 and 36° 2θ using Cu K radiation (α1λ=1.54060 Å; α2=1.54443 Å; β=1.39225 Å; α1: α2 ratio=0.5; most, if not all, B radiation is removed from the beam using an X-ray mirror) running in Bragg-Brentano geometry (step size 0.008° 2θ) using 40 kV/40 mA generator settings. Measurements were carried out from 2-90% RH, with a final measurement taken at 40% RH.
as §6, with “VH-XRPD” for “In the examples below, VH-XRPD”, “radiation (α1 λ=1.54060” for “radiation (α1λ=1.54060”, “Å; α1:α2” for “Å; α1: α2”, “all, β” for “all, B”, “from 6-90% relative humidity (RH),” for “from 2-90% RH,”

[4] = p-Toluenesulfonic acid, 1 equiv., Ethanol, AS Heptane
[5] = p-Toluenesulfonic acid, 1 equiv., IPA:H2O (75:25% v/v), AS tBME
[6] = p-Toluenesulfonic acid, 1 equiv., Acetonitrile, AS tBME
[7] = p-Toluenesulfonic acid, 1 equiv., Ethyl acetate, AS Heptane
[8] = p-Toluenesulfonic acid, 1 equiv., MEK, AS Heptane
[9] = p-Toluenesulfonic acid, 1 equiv., THF, AS Heptane
[10] = p-Toluenesulfonic acid, 2 equiv., IPA:H2O (75:25% v/v), AS tBME
[11] = p-Toluenesulfonic acid, 2 equiv., Acetonitrile, AS tBME
[12] = p-Toluenesulfonic acid, 2 equiv., Ethanol, AS Heptane
[13] = p-Toluenesulfonic acid, 2 equiv., Ethyl acetate, AS Heptane
[14] = p-Toluenesulfonic acid, 2 equiv., MEK, AS Heptane
[15] = p-Toluenesulfonic acid, 2 equiv., THF, AS Heptane
[16] = Methanesulfonic acid, 1 equiv., Ethanol, AS Heptane
[17] = Methanesulfonic acid, 1 equiv., IPA:H2O (75:25% v/v), AS tBME
[18] = Methanesulfonic acid, 1 equiv., Acetonitrile, AS tBME
[19] = Methanesulfonic acid, 1 equiv., Ethyl acetate, AS Heptane
[20] = Methanesulfonic acid, 1 equiv., MEK, AS Heptane
[21] = Methanesulfonic acid, 1 equiv., THF, AS Heptane
[22] = L-Tartaric acid, 1 equiv., AS Heptane
[23] = L-Tartaric acid, 1 equiv., Acetonitrile, AS tBME
[24] = L-Tartaric acid, 1 equiv., Ethanol, AS Heptane
[25] = L-Tartaric acid, 1 equiv., IPA:H2O (75:25% v/v), AS tBME
[26] = L-Tartaric acid, 1 equiv., MEK, AS Heptane
[27] = L-Tartaric acid, 1 equiv., THF, AS Heptane
[28] = Methanesulfonic acid, 2 equiv., IPA:H2O (75:25% v/v), AS tBME
[29] = Methanesulfonic acid, 2 equiv., Acetonitrile, AS tBME
[30] = Methanesulfonic acid, 2 equiv., Ethanol, AS Heptane
[31] = Methanesulfonic acid, 2 equiv., Ethyl acetate, AS Heptane
[32] = Methanesulfonic acid, 2 equiv., MEK, AS Heptane
[33] = Methanesulfonic acid, 2 equiv., THF, AS Heptane
[34] = Citric acid, 1 equiv., AS Heptane
[35] = Citric acid, 1 equiv., Acetonitrile, AS tBME
[36] = Citric acid, 1 equiv., Ethanol, AS Heptane
[37] = Citric acid, 1 equiv., IPA:H2O (75:25% v/v), AS tBME
[38] = Citric acid, 1 equiv., MEK, AS Heptane
[39] = Citric acid, 1 equiv., THF, AS Heptane
[40] = Benzenesulfonic acid, 1 equiv., IPA:H2O (75:25% v/v), AS tBME
[41] = Benzenesulfonic acid, 1 equiv., Acetonitrile, AS tBME
[42] = Benzenesulfonic acid, 1 equiv., Ethanol, AS Heptane
[43] = Benzenesulfonic acid, 1 equiv., Ethyl acetate, AS Heptane
[44] = Benzenesulfonic acid, 1 equiv., MEK, AS Heptane
[45] = Benzenesulfonic acid, 1 equiv., THF, AS Heptane

XRPD Analysis Damp/Dry [1, 4]: A (evap.)
XRPD Analysis Damp/Dry [1, 5]: A (evap.)
XRPD Analysis 40° C. 75% RH [2, 6]: A
XRPD Analysis Damp [2, 6]: A
XRPD Analysis Dry [2, 6]: A
XRPD Analysis 40° C. 75% RH [2, 4]: A
XRPD Analysis 40° C. 75% RH [2, 7]: A
XRPD Analysis Damp [2, 7]: A
XRPD Analysis Dry [2, 7]: A
XRPD Analysis 40° C. 75% RH [2, 5]: A
XRPD Analysis 40° C. 75% RH [2, 8]: A
XRPD Analysis Damp [2, 8]: A
XRPD Analysis Dry [2, 8]: A
XRPD Analysis 40° C. 75% RH [2, 9]: A
XRPD Analysis Damp [2, 9]: A
XRPD Analysis Dry [2, 9]: A
SMILES: Cc1ccc(S(=O)(=O)O)cc1 [p-Toluenesulfonic acid, 1 equiv.]

XRPD Analysis Damp/Dry [1, 10]: A (evap.)
XRPD Analysis 40° C. 75% RH [2, 11]: A
XRPD Analysis Damp [2, 11]: A
XRPD Analysis Dry [2, 11]: A
XRPD Analysis 40° C. 75% RH [2, 12]: A
XRPD Analysis Damp [2, 12]: A
XRPD Analysis Dry [2, 12]: A
XRPD Analysis 40° C. 75% RH [2, 13]: A
XRPD Analysis Damp [2, 13]: A
XRPD Analysis Dry [2, 13]: A
XRPD Analysis 40° C. 75% RH [2, 10]: A
XRPD Analysis 40° C. 75% RH [2, 14]: A
XRPD Analysis Damp [2, 14]: A
XRPD Analysis Dry [2, 14]: A
XRPD Analysis 40° C. 75% RH [2, 15]: A
XRPD Analysis Damp [2, 15]: A
XRPD Analysis Dry [2, 15]: A
SMILES: Cc1ccc(S(=O)(=O)O)cc1 [p-Toluenesulfonic acid, 2 equiv.]

XRPD Analysis Damp/Dry [1, 16]: A (evap.)
XRPD Analysis Damp/Dry [1, 17]: A (evap.)
XRPD Analysis 40° C. 75% RH [2, 18]: A
XRPD Analysis Damp [2, 18]: A
XRPD Analysis Dry [2, 18]: A
XRPD Analysis 40° C. 75% RH [2, 16]: A
XRPD Analysis 40° C. 75% RH [2, 19]: A
XRPD Analysis Damp [2, 19]: A
XRPD Analysis Dry [2, 19]: A
XRPD Analysis 40° C. 75% RH [2, 17]: A
XRPD Analysis 40° C. 75% RH [2, 20]: A
XRPD Analysis Damp [2, 20]: A
XRPD Analysis Dry [2, 20]: A
XRPD Analysis 40° C. 75% RH [2, 21]: A
XRPD Analysis Damp [2, 21]: A
XRPD Analysis Dry [2, 21]: A
SMILES: CS(=O)(=O)O [Methanesulfonic acid, 1 equiv.]

XRPD Analysis Damp [1, 22]: PC, CI
XRPD Analysis Dry [1, 22]: PC, CI
XRPD Analysis 40° C. 75% RH [2, 23]: A
XRPD Analysis Damp [2, 23]: A
XRPD Analysis Dry [2, 23]: A
XRPD Analysis 40° C. 75% RH [2, 24]: A
XRPD Analysis Damp [2, 24]: A
XRPD Analysis Dry [2, 24]: A
XRPD Analysis 40° C. 75% RH ([2]; L-Tartaric acid, 1 equiv., Ethyl acetate, AS Heptane): A
XRPD Analysis 40° C. 75% RH [2, 25]: A
XRPD Analysis Damp [2, 25]: A
XRPD Analysis Dry [2, 25]: A
XRPD Analysis 40° C. 75% RH [2, 26]: A
XRPD Analysis Damp [2, 26]: A
XRPD Analysis Dry [2, 26]: A
XRPD Analysis 40° C. 75% RH [2, 27]: A
XRPD Analysis Damp [2, 27]: A
XRPD Analysis Dry [2, 27]: A
SMILES: O=C(O)C(O)C(O)C(=O)O [L-Tartaric acid, 1 equiv.]

SMILES: COc1cc(C(=O)O[C@@H]2CCCOc3cc(cc(OC)c3OC)C(=O)NCCCN3CCCN(CC2)CC3)cc(OC)c1OC.O=S(=O)(O)O.O=S(=O)(O)O [crystalline Form 5 Compound 1 di(hydrogen sulfate)]
relative humidity at which conversion to crystalline Form 2 Compound 1 di(hydrogen sulfate) trihydrate is observed [3]: ≥ 10 % RH

XRPD Analysis Damp/Dry [1, 28]: A (evap.)
XRPD Analysis 40° C. 75% RH [2, 29]: A
XRPD Analysis Damp [2, 29]: A
XRPD Analysis Dry [2, 29]: A
XRPD Analysis 40° C. 75% RH [2, 30]: A
XRPD Analysis Damp [2, 30]: A
XRPD Analysis Dry [2, 30]: A
XRPD Analysis 40° C. 75% RH [2, 31]: A
XRPD Analysis Damp [2, 31]: A
XRPD Analysis Dry [2, 31]: A
XRPD Analysis 40° C. 75% RH [2, 28]: A
XRPD Analysis 40° C. 75% RH [2, 32]: A
XRPD Analysis Damp [2, 32]: A
XRPD Analysis Dry [2, 32]: A
XRPD Analysis 40° C. 75% RH [2, 33]: A
XRPD Analysis Damp [2, 33]: A
XRPD Analysis Dry [2, 33]: A
SMILES: CS(=O)(=O)O [Methanesulfonic acid, 2 equiv.]

SMILES: O=C(O)CC(O)(CC(=O)O)C(=O)O [Citric acid, 1 equiv.]
XRPD Analysis Damp [1, 34]: PC, CI
XRPD Analysis Dry [1, 34]: PC, CI
XRPD Analysis 40° C. 75% RH [2, 35]: A
XRPD Analysis Damp [2, 35]: A
XRPD Analysis Dry [2, 35]: A
XRPD Analysis 40° C. 75% RH [2, 36]: A
XRPD Analysis Damp [2, 36]: A
XRPD Analysis Dry [2, 36]: A
XRPD Analysis 40° C. 75% RH ([2]; Citric acid, 1 equiv., Ethyl acetate, AS Heptane): A
XRPD Analysis 40° C. 75% RH [2, 37]: A
XRPD Analysis Damp [2, 37]: A
XRPD Analysis Dry [2, 37]: A
XRPD Analysis 40° C. 75% RH [2, 38]: A
XRPD Analysis Damp [2, 38]: A
XRPD Analysis Dry [2, 38]: A
XRPD Analysis 40° C. 75% RH [2, 39]: A
XRPD Analysis Damp [2, 39]: A
XRPD Analysis Dry [2, 39]: A

XRPD Analysis Damp/Dry [1, 40]: A (evap.)
XRPD Analysis 40° C. 75% RH [2, 41]: A
XRPD Analysis Damp [2, 41]: A
XRPD Analysis Dry [2, 41]: A
XRPD Analysis 40° C. 75% RH [2, 42]: A
XRPD Analysis Damp [2, 42]: A
XRPD Analysis Dry [2, 42]: A
XRPD Analysis 40° C. 75% RH [2, 43]: A
XRPD Analysis Damp [2, 43]: A
XRPD Analysis Dry [2, 43]: A
XRPD Analysis 40° C. 75% RH [2, 40]: A
XRPD Analysis 40° C. 75% RH [2, 44]: A
XRPD Analysis Damp [2, 44]: A
XRPD Analysis Dry [2, 44]: A
XRPD Analysis 40° C. 75% RH [2, 45]: A
XRPD Analysis Damp [2, 45]: A
XRPD Analysis Dry [2, 45]: A
SMILES: O=S(=O)(O)c1ccccc1 [Benzenesulfonic acid, 1 equiv.]
